Assay results from EP0268663B1, “PHOSPHOPEPTIDES” (THE UNIVERSITY OF MELBOURNE, priority 1986, dated 1995).
Square brackets hold non-standard residues; d marks the D form. Peptide text beside a SMILES is read from it. pS = N[C@@H](COP(=O)(O)O)C(=O)O

What was measured:
[1] = Intra-Oral Caries Test; type: in vivo; settings: plaque exposed twice a day to the peptide T1 solution (1.8% w/v calcium phosphate T1)
Method: The anticariogenicity of phosphopeptide T1 was determined using a modification of the intra-oral caries test of Koulourides and Ostrom (Caries Res. 10:442-482, 1976). Enamel slabs were inset in a removable intra-oral appliance to simulate an approximal area. This was done on both sides of the removable appliance (left and right). The appliance was worn to allow plaque accumulation in the simulated approximal areas. Eight times a day the appliance was removed and placed in a solution at 37°C. The solution was 2% w/v sucrose, 2% w/v glucose, 140 mM KCl, 20mM NaCl at pH 7.0. Twice a day the right side enamel slabs received exposure to a solution containing 1.8% w/v calcium phosphate T1 in 140 mM KCl, 20 mM NaCl at pH 7.0, while the left side received only the salt solution. At the completion of the experiment the enamel slabs were removed, sectioned and subjected to microradiography and microhardnass testing. […] The results were confirmed by microhardness analysis. Plaque was also taken from both sides of the appliance and analysed for calcium phosphate, serine phosphate and peptide T1 using a competitive, quantitative, enzyme-linked immunosorbent assay (ELISA) utilising monoclonal antipeptide T1 antibodies.

[2] = Sequestration of calcium phosphate by the peptide; type: physicochemical; settings: 10mg/ml solution at pH 7.0; metastable supersaturated solution
Method: The active peptides can sequester calcium phosphate and other salts of divalent metal ions. One mole of T1 binds 16 mole of CaHPO₄ such that a 10mg/ml solution of T1 at pH 7.0 can solubilize 60mM CaHPO₄ producing a metastable supersaturated solution with respect to calcium phosphate species. With chloride as the counter ion one mole of T1 binds only 5 mole of Ca⁺⁺ binding only to serine phosphates. One mole of T1 with about 16 mole of CaHPO₄ bound (M.W. 4883) will henceforth be referred to as calcium phosphate T1.

## CC[C@H](C)[C@H](NC(=O)[C@H](COP(=O)(O)O)NC(=O)[C@H](CCC(=O)O)NC(=O)[C@H](C)NC(=O)[C@H](CCC(=O)O)NC(=O)[C@H](CCSC)NC(=O)[C@@H](N)CCC(=O)O)C(=O)N[C@@H](COP(=O)(O)O)C(=O)N[C@@H](COP(=O)(O)O)C(=O)N[C@@H](COP(=O)(O)O)C(=O)N[C@@H](CCC(=O)O)C(=O)N[C@@H](CCC(=O)O)C(=O)N[C@H](C(=O)N[C@H](C(=O)N1CCC[C@H]1C(=O)N[C@@H](CC(N)=O)C(=O)N[C@@H](COP(=O)(O)O)C(=O)N[C@H](C(=O)N[C@@H](CCC(=O)O)C(=O)N[C@@H](CCC(N)=O)C(=O)N[C@@H](CCCCN)C(=O)O)C(C)C)C(C)C)[C@@H](C)CC [Phosphopeptide T1] (H-EMEAE[pS]I[pS][pS][pS]EEIVPN[pS]VEQK-OH)
[1]
  level of peptide in plaque (ELISA): at least 0.4 % w/wet wt of plaque
[2]
  CaHPO₄ solubilized: 60 mM
